Data set [1] in a line: Stability of Ru(III) complexes in phosphate buffer by UV-vis spectrophotometry. The class given is physicochemical. Particulars: 20 mM phosphate buffer pH 7.4, 100 mM NaCl, 37 °C. The procedure: The stability of Ru(III) complexes (15–20) was investigated in a solution resembling physiological conditions (20 mM of phosphate buffer, pH 7.4, and 100 mM of NaCl at 37 °C) by UV-vis spectrophotometry (Table 1). The half-transformation time t1/2 was calculated based on changes in the electronic absorption spectrum (Figure S1) and defined as the value of t at the Alin/2 point. ΔA(t) was plotted against λmax; the initial section was approximated as a linear function.
The stability of Ru(III) complexes was studied by electron absorption spectroscopy in 20 mM of phosphate buffer, pH 7.4, and 100 mM of NaCl. The working solution (2 mL, 200 μM complex) was prepared by diluting 10 μL of the original 40 mM solution in DMSO and 1.99 mL of phosphate buffer. UV-vis spectra were recorded every 60 s in the range of 280–600 nm at 37 °C. The half-transformation time was t1/2. For λmax, ΔA(t) was plotted, where ΔA = A0–Ai, an initial section, was approximated as a linear function. At ΔAline./2 point calculated as t = t1/2.

A short description of data set [2]: Lipophilicity, shake-flask method water/n-octanol. Particulars: UV-vis, mean ± SD. The class given is physicochemical. The procedure:
The lipophilicity of complexes 15–20 was studied using a standard shake-flask method in a mixture of water/n-octanol. For the quantification of compounds in the water phase, UV-vis spectrophotometry was used. […] Among other complexes, as expected, 20 was the most lipophilic (Table 1).
N-octanol was saturated with water and with water saturated with n-octanol; mixture400 mL of n-octanol (water) and 100 mL of water (n-octanol) was stirred for 24 h; and then fractions were separated. The sample of the complex was dissolved in n-octanol and a series of solutions in octanol (300, 250, 3 × 200, 150, 100, and 50 μM) was prepared. Absorption spectra were recorded and the calibration curve for maximum absorption was plotted. From 200 μM solutions, the mixtures with water were prepared (1:1, 1:2, 2:1 v/v) and shaken for 15 min. The organic phase was separated by centrifugation. The concentration of the complex in n-octanol was determined from the calibration curve and lipophilicity (logP) was calculated as log P = log [(C0–Caq)/Caq].

Data set [3] has as its system MCF-7 breast carcinoma cells. Kind of data set: Cellular ruthenium accumulation by atomic absorption spectrometry. The format is cell-based. Particulars: MCF-7, 20 μM. The procedure: The cellular accumulation of ruthenium complexes was studied by atomic absorption spectrometry. The MCF-7 breast carcinoma cells were incubated with 16 and 20 for 1–24 h in DMEM with or without fetal bovine serum to reduce the binding of complexes with proteins. The accumulation was dependent on the linker’s length. […] The ruthenium complex entered the cells relatively fast; by 4 h, no notable further increase of the Ru content was observed (Figure 6). […] The negative effect of serum on the cellular Ru accumulation has been reported for other ruthenium species; however, significant effects were detectable only after longer exposure (24 h).
The intracellular accumulation of metal-containing compounds was determined as described. […]
For metal and protein quantification, pellets were resuspended in 250 µL of deionised water and lysed for 30 min with sonication. The protein content in lysates was determined by the Bradford method. […] Drying steps were adjusted, the atomisation temperature was set to 2400 °C, and the reading time was increased to 7 s. Ruthenium was quantified at 349.8945 nm. The mean integrated absorbance of triple injections was used throughout the measurements. Results (average of the two experiments) were expressed as nmol metal/mg protein.

The subject of the next data set is SW480. Kind of data set: Antiproliferative activity, MTT assay. The format is cell-based, human. Particulars: MTT, 72 h exposure; mean ± SD; read-out: IC50, µM SW480. The procedure: (§1) The antiproliferative activity of new ligands and complexes was determined against human cell lines, including colon adenocarcinoma SW480, breast adenocarcinoma MCF-7, lung adenocarcinoma A549, neuroblastoma SHSY5Y, and non-tumourigenic HaCaT (Table 4). In general, complexes were more cytotoxic compared to ligands, lonidamine, and, in some cases, cisplatin. […] We chose this compound and the synthetically accessible complex 16 for mechanistic studies.
(§2) The antiproliferative activity was studied by MTT assays as published previously. For flow cytometry studies, cells were plated into 6-well plates (Eppendorf, Germany; 4 × 10^5 cells in 2 mL of DMEM) and incubated for 24 h. Solutions of complexes in DMSO were prepared immediately prior to the day of the experiments. Cells were treated with either 20 µM of cisplatin, 50 µM of 16, or 20 µM of 20. Concentrations corresponded to two-fold IC50 values based on MTT assays. Cells were incubated for 24 h, pooled, washed with cold PBS, and resuspended in DMEM. Aliquots of cells were processed as recommended in the Muse Annexin V&Dead Cell Kit or Muse Caspase-3/7 Kit (Luminex). Measurements were carried out on a Muse Cell Analyser, Luminex corp., TX, USA.

For another data set, the system named is SH-SY5Y. Kind of data set: Antiproliferative activity, MTT assay. The format is cell-based, human. Particulars: 72 h exposure, mean ± SD. The procedure:
as §1, §2

The subject of another data set is A549. Kind of data set: Antiproliferative activity, MTT assay. The format is cell-based, human. Particulars: MTT, 72 h exposure; mean ± SD; read-out: IC50, µM A549. On the procedure: as §1, §2
For orientation: Tetrazolium dyes change colour on reduction, which living cells bring about.

Another data set has as its system MCF-7. Description: Antiproliferative activity, MTT assay. The format is cell-based, human. Particulars: MTT, 72 h exposure; mean ± SD; read-out: IC50, µM MCF-7. On the procedure: as §1, §2

Two substances from PMC8707700, “Ru(III) Complexes with Lonidamine-Modified Ligands” (International Journal of Molecular Sciences, 2021) can be followed below.

Bounds are passed on as bounds.

“Na[trans-Ru(DMSO)(C30H37Cl2N5O)Cl4] [Compound 20]”: the “t1/2 (half-transformation time)” value is ~ 35 min in data set [1] and 2150 ± 110 s in data set [1] (mean ± SD, three experiments). Moreover, in data set [2], the “Log P” value is given as 1.3 ± 0.2. For the same substance, the “cellular Ru accumulation” value in data set [3] (1–24 h) is listed as “accumulated more readily than 16”. The IC50 with SW480 amounted to 9.6 ± 1.3 µM; with SH-SY5Y it was 6.1 ± 0.3 µM; in the data set on A549, 8.1 ± 1.1 µM; in the data set on MCF-7, 9.2 ± 0.1 µM.

Turning to “Na[trans-Ru(DMSO)(C21H19Cl2N5O)Cl4] [Compound 16]”, in data set [1] (mean ± SD, three experiments), the “t1/2 (half-transformation time)” value was found to be 330 ± 20 s. Besides, the “cellular Ru accumulation with serum in the culture medium” value in data set [3] (serum present) was “only very low uptake”. In addition, the IC50 was 25 ± 7.1 µM with SW480, 26.1 ± 5.5 µM in the data set with SH-SY5Y, > 30 µM with A549 and 23 ± 0.5 µM in the data set with MCF-7.

In general, Log P refers to the decadic logarithm of the partition coefficient of the neutral form, usually between octanol and water. Higher therefore signals higher lipophilicity. For orientation: IC50 means the concentration at which inhibition is half-maximal.
